Test results reported in patent publication US20230263822A1, “MODULATION OF FACTOR 11 EXPRESSION” (Ionis Pharmaceuticals, Inc., priority 2008, published 2023).
Strand notation (5' to 3'): a small letter for the sugar, then the base; units joined by * are phosphorothioate-linked, units joined directly phosphodiester-linked; [ ] holds rarer units or linkages, { } end groups; capitals alone tell only the bases. e = 2'-O-(2-methoxyethyl) (MOE); [5mC] = 5-methylcytosine; d = 2'-deoxy (DNA)

Assays:
Factor 11 mRNA = Factor 11 mRNA in cynomolgus monkey liver, day 55 (Example 46); assay type: in vivo, cynomolgus monkeys; details: cynomolgus monkeys, 25 mg/kg
In short: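 Male and female cynomolgus monkeys (2+2 per group) received antisense oligonucleotides sc at 25 mg/kg, three times weekly in week 1 and twice weekly in weeks 2-8. PBS-dosed animals served as control. Factor 11 mRNA in liver on day 55 was measured by real-time PCR (primer probe set LTS00301) as percent inhibition relative to PBS control.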

[1] = Liver function, ALT, AST, bilirubin in cynomolgus monkeys (Example 46); assay type: in vivo; details: plasma
Procedure: (§1) Groups, each consisting of two male and two female monkeys, were injected subcutaneously with 25 mg/kg of ISIS 416850, ISIS 449709, ISIS 445522, ISIS 449710, ISIS 449707, ISIS 449711, ISIS 449708, 416858, and ISIS 445531. Antisense oligonucleotide was administered to the monkeys at 25 mg/kg three times per week for week 1 and 25 mg/kg twice per week for weeks 2 to 8. A control group, consisting of two male and two female monkeys was injected subcutaneously with PBS according to the same dosing regimen. Body weights were taken 14 days and 7 days before the start of treatment and were then measured weekly throughout the treatment period. Blood samples were collected 14 days and 5 days before the start of treatment and subsequently several times during the dosing regimen for PT and aPTT measurements, and measurement of various hematologic factors. On day 55, the monkeys were euthanized by exsanguination while under deep anesthesia, and organs harvested for further analysis.
Plasma concentrations of alanine transaminase (ALT) and aspartate transaminase (AST) were measured and the results are presented in Tables 152 and 153 expressed in IU/L. Plasma levels of bilirubin were also measured and results are presented in Table 154 expressed in mg/dL. As observed in Tables 152-154, there were no significant increases in any of the liver metabolic markers after antisense oligonucleotide treatment.

[2] = Kidney function, BUN, urine protein to creatinine ratio in cynomolgus monkeys (Example 46); assay type: in vivo; details: for Urine protein/creatinine ratio: day 49
Procedure: as §1
To evaluate the impact of ISIS oligonucleotides on kidney function, urine samples were collected on different days. […] The ratio of urine protein to creatinine in urine samples after antisense oligonucleotide treatment was also calculated for day 49 and results are presented in Table 156. As observed in Tables 155 and 156, there were no significant increases in any of the kidney metabolic markers after antisense oligonucleotide treatment.

[3] = Hematology assays in cynomolgus monkeys (Example 46); assay type: in vivo
Procedure: as §1

[4] = tested on: IL-1β, IL-6, IFN-γ, TNF-α, IL-8, MIP-1α, MCP-1, MIP-1β, RANTES; experiment: Cytokine and chemokine assays in cynomolgus monkeys (Example 46); assay type: in vivo
Procedure: as §1
Blood samples obtained from all monkey groups were sent to Pierce Biotechnology (Woburn, Mass.) for measurements of chemokine and cytokine levels. Levels of IL-1β, IL-6, IFN-γ, and TNF-α were measured using the respective primate antibodies and levels of IL-8, MIP-1α, MCP-1, MIP-1β and RANTES were measured using the respective cross-reacting human antibodies. Measurements were taken 14 days before the start of treatment and on day 55, when the monkeys were euthanized.

[5] = Day −5 (before start of treatment)
[6] = Day −14 (before start of treatment)
[7] = day-14 (before start of treatment)

## ISIS 449709: 3-8-3, 4-8-4, 2-10-2, 3-10-3 or 4-10-4 MOE microwalk gapmer (Table 46) (antisense eG*e[5mC]*eA*e[5mC]*dA*dG*dT*dT*dT*d[5mC]*dT*dG*dG*d[5mC]*eA*eG*eG*e[5mC])
Factor 11 mRNA
  Factor 11 mRNA in liver vs PBS control: significant reduction of Factor 11 mRNA
[1]; Day 31
  ALT: 65 IU/L
  AST: 45 IU/L
  Bilirubin: 0.15 mg/dL
[1]; Day 55
  ALT: 102 IU/L
  AST: 71 IU/L
  Bilirubin: 0.18 mg/dL
[1]; Day −5
  ALT: 77 IU/L
  AST: 51 IU/L
  Bilirubin: 0.19 mg/dL
[1]; Day −14
  ALT: 73 IU/L
  AST: 62 IU/L
  Bilirubin: 0.24 mg/dL
[2]; Day 31
  BUN levels: 20 mg/dL
[2]; Day 55
  BUN levels: 28 mg/dL
[2]; [5]
  BUN levels: 21 mg/dL
[2]; [6]
  BUN levels: 22 mg/dL
[2]
  Urine protein/creatinine ratio: 0.05
[3]; Day 17
  HCT: 43%
  MCH: 22.5 pg
  MCHC: 30.7 g/dL
  MCV: 73 fL
  RBC count: 5.9e+06 µL⁻¹
  WBC count: 11000 µL⁻¹
  hemoglobin content: 13.2 g/dL
  monocytes: 3.0%
  neutrophils: 89%
  platelet count: 449 ×100/μL
[3]; Day 31
  HCT: 42%
  MCH: 22.2 pg
  MCHC: 30.7 g/dL
  MCV: 73 fL
  RBC count: 5.9e+06 µL⁻¹
  WBC count: 11000 µL⁻¹
  hemoglobin content: 13.1 g/dL
  monocytes: 2.8%
  neutrophils: 81%
  platelet count: 471 ×100/μL
[3]; Day 45
  HCT: 41%
  MCH: 21.0 pg
  MCHC: 31.1 g/dL
  MCV: 71 fL
  RBC count: 5.7e+06 µL⁻¹
  WBC count: 11000 µL⁻¹
  hemoglobin content: 12.6 g/dL
  monocytes: 3.6%
  neutrophils: 77%
  platelet count: 418 ×100/μL
[3]; Day 55
  HCT: 40%
  MCH: 22.0 pg
  MCHC: 31.2 g/dL
  MCV: 71 fL
  RBC count: 5.7e+06 µL⁻¹
  WBC count: 10000 µL⁻¹
  hemoglobin content: 12.5 g/dL
  monocytes: 3.4%
  neutrophils: 115%
  platelet count: 441 ×100/μL
[3]; Day-5
  HCT: 42%
  MCH: 22.3 pg
  MCHC: 30.3 g/dL
  MCV: 74 fL
  RBC count: 5.8e+06 µL⁻¹
  WBC count: 10000 µL⁻¹
  hemoglobin content: 12.8 g/dL
  monocytes: 2.0%
  neutrophils: 101%
  platelet count: 481 ×100/μL
[3]; Day-14
  HCT: 41%
  MCH: 22.4 pg
  MCHC: 31.4 g/dL
  MCV: 72 fL
  RBC count: 5.8e+06 µL⁻¹
  WBC count: 11000 µL⁻¹
  hemoglobin content: 12.8 g/dL
  monocytes: 4.0%
  neutrophils: 73%
  platelet count: 456 ×100/μL
[4]; day 55
  IFN-γ level: 25 pg/mL
  IL-1ß level: 181 pg/mL
  IL-6 level: 0 pg/mL
  IL-8 level: 254 pg/mL
  MCP-1 level: 507 pg/mL
  MIP-1ß level: 47 pg/mL
  MIP-1α level: 17 pg/mL
  RANTES level: 8958 pg/mL
  TNF-α level: 8 pg/mL
[4]; [7]
  IFN-γ level: 37 pg/mL
  IL-1ß level: 137 pg/mL
  IL-6 level: 1 pg/mL
  IL-8 level: 34 pg/mL
  MCP-1 level: 290 pg/mL
  MIP-1ß level: 14 pg/mL
  MIP-1α level: 13 pg/mL
  RANTES level: 2471 pg/mL
  TNF-α level: 9 pg/mL

## ISIS 449708: 3-8-3, 4-8-4, 2-10-2, 3-10-3 or 4-10-4 MOE microwalk gapmer (Table 46) (antisense eA*e[5mC]*eA*dG*dT*dT*dT*d[5mC]*dT*dG*dG*e[5mC]*eA*eG)
Factor 11 mRNA
  Factor 11 mRNA in liver vs PBS control: significant reduction of Factor 11 mRNA
[1]; Day 31
  ALT: 44 IU/L
  AST: 56 IU/L
  Bilirubin: 0.14 mg/dL
[1]; Day 55
  ALT: 46 IU/L
  AST: 50 IU/L
  Bilirubin: 0.14 mg/dL
[1]; Day −5
  ALT: 54 IU/L
  AST: 53 IU/L
  Bilirubin: 0.21 mg/dL
[1]; Day −14
  ALT: 48 IU/L
  AST: 74 IU/L
  Bilirubin: 0.27 mg/dL
[2]; Day 31
  BUN levels: 23 mg/dL
[2]; Day 55
  BUN levels: 23 mg/dL
[2]; [5]
  BUN levels: 23 mg/dL
[2]; [6]
  BUN levels: 25 mg/dL
[2]
  Urine protein/creatinine ratio: 0.00
[3]; Day 17
  HCT: 44%
  MCH: 22.9 pg
  MCHC: 30.7 g/dL
  MCV: 75 fL
  RBC count: 5.9e+06 µL⁻¹
  WBC count: 11000 µL⁻¹
  hemoglobin content: 13.5 g/dL
  monocytes: 5.4%
  neutrophils: 61%
  platelet count: 444 ×100/μL
[3]; Day 31
  HCT: 43%
  MCH: 22.7 pg
  MCHC: 29.9 g/dL
  MCV: 75 fL
  RBC count: 5.8e+06 µL⁻¹
  WBC count: 11000 µL⁻¹
  hemoglobin content: 13.0 g/dL
  monocytes: 5.8%
  neutrophils: 57%
  platelet count: 378 ×100/μL
[3]; Day 45
  HCT: 44%
  MCH: 22.2 pg
  MCHC: 30.6 g/dL
  MCV: 74 fL
  RBC count: 6e+06 µL⁻¹
  WBC count: 10000 µL⁻¹
  hemoglobin content: 13.3 g/dL
  monocytes: 7.0%
  neutrophils: 61%
  platelet count: 381 ×100/μL
[3]; Day 55
  HCT: 42%
  MCH: 22.5 pg
  MCHC: 31.8 g/dL
  MCV: 74 fL
  RBC count: 5.8e+06 µL⁻¹
  WBC count: 10000 µL⁻¹
  hemoglobin content: 13.0 g/dL
  monocytes: 6.2%
  neutrophils: 75%
  platelet count: 348 ×100/μL
[3]; Day-5
  HCT: 44%
  MCH: 22.7 pg
  MCHC: 30.2 g/dL
  MCV: 75 fL
  RBC count: 5.9e+06 µL⁻¹
  WBC count: 10000 µL⁻¹
  hemoglobin content: 13.2 g/dL
  monocytes: 2.6%
  neutrophils: 84%
  platelet count: 517 ×100/μL
[3]; Day-14
  HCT: 41%
  MCH: 22.9 pg
  MCHC: 31.4 g/dL
  MCV: 73 fL
  RBC count: 5.7e+06 µL⁻¹
  WBC count: 14000 µL⁻¹
  hemoglobin content: 13.0 g/dL
  monocytes: 1.7%
  neutrophils: 73%
  platelet count: 387 ×100/μL
[4]; day 55
  IFN-γ level: 18 pg/mL
  IL-1ß level: 131 pg/mL
  IL-6 level: 0 pg/mL
  IL-8 level: 85 pg/mL
  MCP-1 level: 409 pg/mL
  MIP-1ß level: 128 pg/mL
  MIP-1α level: 23 pg/mL
  RANTES level: 4561 pg/mL
  TNF-α level: 17 pg/mL
[4]; [7]
  IFN-γ level: 27 pg/mL
  IL-1ß level: 35 pg/mL
  IL-6 level: 1 pg/mL
  IL-8 level: 184 pg/mL
  MCP-1 level: 361 pg/mL
  MIP-1ß level: 19 pg/mL
  MIP-1α level: 11 pg/mL
  RANTES level: 11666 pg/mL
  TNF-α level: 12 pg/mL
